In patent US20220323329A1, “ORAL HEALTH COMPOSITION AND PREPARATION PROCESS FOR ORAL HEALTH COMPOSITION” (MMF&T DESENVOLVIMENTO TECNOLÓGICO E INOVAÇÃO LTDA., priority 2019, published 2022):

Columns and labels:
[1] = PDT with phthalocyanine-glucamine as PTS; rats; cited from earlier work
[2] = test system: Candida albicans (ATCC 10231); assay: Antimicrobial potential of phthalocyanine by direct contact; assay type: cell-based; conditions: different concentrations and timespans (10.000 mg and 1.000 mg, 24 hours in FIG. 2)
Protocol: (§1) Studies were carried out for the improvement of antimicrobial potential of phthalocyanines, in an intrinsic aim of developing toothpastes, such as dental creams and dental foams including phthalocyanine for in vitro studies and possibly also in vivo studies.
(§2) For this purpose, the following microorganisms were used: Streptococcus mutans (ATCC 25175); Candida albicans (ATCC 10231); Enterococcus faecalis (ATCC 29212); and Staphylococcus aureus (ATCC 6538).

[3] = test system: Enterococcus faecalis (ATCC 29212); assay: as above; assay type: cell-based; conditions: different concentrations and timespans (10.000 mg and 1.000 mg, 24 hours in FIG. 3)
Protocol: as §1, §2

[4] = test system: Staphylococcus aureus (ATCC 6538); assay: as above; assay type: cell-based; conditions: different concentrations and timespans (10.000 mg and 1.000 mg, 24 hours in FIG. 4)
Protocol: as §1, §2

[5] = test system: Streptococcus mutans (ATCC 25175); assay: as above; assay type: cell-based; conditions: different concentrations and timespans (10.000 mg and 1.000 mg, 3 and 5 minutes in FIGS. 5, 6)
Protocol: as §1, §2

Row | Molecule | treatment of induced periodontal disease [1] | microbicidal action / inhibition of microbial growth [2] | microbicidal action / inhibition of microbial growth [3] | microbicidal action / inhibition of microbial growth [4] | microbicidal action / inhibition of microbial growth [5]
1 | phthalocyanine-glucamine | effective in the treatment of periodontal disease induced in rats | – | – | – | –
2 | c1ccc2c(c1)-c1nc-2nc2[nH]c(nc3nc(nc4[nH]c(n1)c1ccccc41)-c1ccccc1-3)c1ccccc21 [phthalocyanine] | – | full inhibition of microbial growth | full inhibition of microbial growth | full inhibition of microbial growth | full inhibition of microbial growth
